Laboratory results published in patent US9982005B2, “Macrolides and methods of their preparation and use” (President and Fellows of Harvard College, priority 2013, dated 2018).
Converted amounts (≈) assume the structure as drawn. Where two headings read alike, the source gives them in different places.

Legend:
Assay type in all cases: cell-based
[1] = test system: E. coli (MC4100); test: MIC, E. coli MC4100; conditions: Escherichia coli
Excerpt: (§1) We have collected MIC data for a total of 50 novel macrolides that this platform has produced against over 21 unique strains of B. subtilis, E. coli, S. aureus, S. pneumoniae, and H. influenzae, including several multidrug-resistant strains, with a special focus on macrolide resistant mechanisms (vide supra). Azithromycin was included as a control macrolide. CLSI standard procedures for broth dilution MIC determination were used. […] These genotypes can be constitutive or inducible. The finding that C4-epi (unnatural) isomers of the “azaketolide” macrolide class have enhanced activities relative to C4 natural isomers is very exciting.

[2] = test system: S. aureus (Newman, clinical isolate); test: MIC, S. aureus Newman; conditions: Staphylococcus aureus
Excerpt: as §1

[3] = test system: S. pneumoniae strains; test: MIC against S. pneumoniae strains (Tables M7, M8); conditions: Streptococcus pneumoniae
Excerpt: CLSI standard procedures for broth dilution MIC determination were used. […] These genotypes can be constitutive or inducible.

[4] = test system: K. pneumoniae strains; test: MIC against K. pneumoniae strains (Table M8); conditions: Klebsiella pneumoniae, K. pneumoniae 10031
[5] = test system: S. aureus strains; test: MIC against S. aureus strains (Table M7); conditions: for MIC: Staphylococcus aureus
In short: (§2)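 CLSI procedure, broth dilution format, endpoint = MIC. Azithromycin as control macrolide.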

[6] = test system: H. influenzae strains; test: MIC against H. influenzae strains (Table M8); conditions: Haemophilus influenzae
In short: as §2

[7] = test system: E. faecalis strains; test: MIC against E. faecalis strains (Table M8); conditions: Enterococcus faecalis, E. faecalis 29212
[8] = test system: E. coli strains; test: MIC against E. coli strains (Table M7); conditions: Escherichia coli, ATCC25922, E. coli ATCC 25922
In short: as §2

[9] = test system: A. baumannii strains; test: MIC against A. baumannii strains (Table M8); conditions: for MIC: Acinetobacter baumannii, BAA747, A. baumannii BAA747-1
[10] = test system: EC878 E. coli tolC; test: broth dilution MIC, E. coli EC878; conditions: Escherichia coli
Excerpt: as §1

[11] = test system: BS1723 B. subtilis BS168 WT wild type; test: broth dilution MIC, B. subtilis BS1723; conditions: Bacillus subtilis
Excerpt: as §1

[12] = test system: BS1725 B. subtilis ermC; test: broth dilution MIC, B. subtilis BS1725; conditions: Bacillus subtilis
Excerpt: as §1

[13] = test system: SA101 S. aureus ATCC29213; test: broth dilution MIC, S. aureus SA101; conditions: Staphylococcus aureus, ATCC29213, SA101 S. aureus ATCC29213; read-out: MIC
Excerpt: as §1

[14] = test system: EC107 E. coli ATCC25922; test: broth dilution MIC, E. coli EC107; conditions: Escherichia coli, read-out: MIC
Excerpt: as §1

[15] = test system: EC882 E. coli imp; test: broth dilution MIC, E. coli EC882; conditions: Escherichia coli
Excerpt: as §1

[16] = S. aureus (Neuman, clinical isolate), round 2
[17] = S. pneumoniae 160, read-out: MIC S. pneumonae (160)
[18] = S. pneumoniae 1509, read-out: MIC S. pneumoniae (1509)
[19] = S. pneumoniae 1533, read-out: MIC S. pneumoniae (1533)
[20] = S. pneumoniae 1537, read-out: MIC S. pneumoniae (1537)
[21] = S. pneumoniae 49619, read-out: MIC S. pneumoniae (49619)
[22] = ATCC29213, S. aureus ATCC 29213, read-out: MIC S. aureus (ATCC 29213)
[23] = S. aureus 506, read-out: MIC S. aureus (506)
[24] = S. aureus 1708, read-out: MIC S. aureus (1708)
[25] = USA300, S. aureus USA300, read-out: MIC S. aureus (USA300)
[26] = H. influenzae 49247, read-out: MIC H. influenzae (49247)
[27] = H. influenzae 49766, read-out: MIC H. influenzae (49766)
[28] = BS1723 B. subtilis BS168 WT wild type, read-out: MIC

Compound	MIC [3, 17] [µg/mL]	MIC [3, 18] [µg/mL]	MIC [3, 19] [µg/mL]	MIC [3, 20] [µg/mL]	MIC [3, 21] [µg/mL]	MIC [4] [µg/mL]	MIC [5, 22] [µg/mL]	MIC [5, 23] [µg/mL]	MIC [5, 24] [µg/mL]	MIC [5, 25] [µg/mL]	MIC [6, 26] [µg/mL]	MIC [6, 27] [µg/mL]	MIC [7] [µg/mL]	MIC [8] [µg/mL]	MIC [9] [µg/mL]	MIC [10] [µg/mL]	MIC ([12]; BS1725 B. subtilis ermC (+ery)) [µg/mL]	MIC [13] [µg/mL]	MIC [14] [µg/mL]	MIC [15] [µg/mL]	further results
CC[C@H]1OC(=O)[C@H](C)C(=O)[C@H](C)[C@@H](O[C@@H]2OC(C)CC(N(C)C)C2O)[C@](C)(OC)C[C@@H](C)CN[C@H](C)[C@H]2N(CCCn3cc(-c4ccccn4)nn3)C(=O)O[C@]12C (stereo partly shown) [FSM-40348]	–	–	–	–	–	–	–	–	–	–	–	–	–	–	–	–	–	–	–	–	MIC ([1]; round 1, read-out: MIC): > 32 µg/mL; MIC ([2]; S. aureus (Newman, clinical isolate), round 1): 8 µg/mL (≈ 10 µM)
CC[C@H]1OC(=O)[C@H](C)C(=O)[C@H](C)[C@@H](O[C@@H]2OC(C)CC(N(C)C)C2O)/C(C)=C/CN[C@H](C)[C@H]2N(CCCCn3cc(-c4cccc(N)c4)nn3)C(=O)O[C@]12C (stereo partly shown) [FSM-30624]	–	–	–	–	–	–	–	–	–	–	–	–	–	–	–	–	–	–	–	–	MIC ([1]; round 2, read-out: MIC): > 32 µg/mL; MIC [2, 16]: > 32 µg/mL
CC[C@H]1OC(=O)CC(=O)[C@H](C)[C@@H](O[C@@H]2OC(C)CC(N(C)C)C2O)[C@](C)(OC)C[C@@H](C)CN[C@H](C)[C@H]2N(CCCCn3cc(-c4cccc(N)c4)nn3)C(=O)O[C@]12C (stereo partly shown) [FSM-56133]	0.5 (≈ 0.614 µM)	> 32	> 32	> 32	1 (≈ 1.23 µM)	2 (≈ 2.46 µM)	4 (≈ 4.91 µM)	> 32	4 (≈ 4.91 µM)	8 (≈ 9.83 µM)	1 (≈ 1.23 µM)	4 (≈ 4.91 µM)	0.5 (≈ 0.614 µM)	8 (≈ 9.83 µM)	32 (≈ 39.3 µM)	–	–	–	–	–	MIC ([1]; round 2, read-out: MIC): 8 µg/mL (≈ 9.83 µM); MIC [2, 16]: 4 µg/mL (≈ 4.91 µM)
CC[C@H]1OC(=O)[C@H](C)[C@@H](O[C@H]2C[C@@](C)(OC)[C@@H](O)[C@H](C)O2)[C@H](C)[C@@H](O[C@@H]2O[C@H](C)C[C@H](N(C)C)[C@H]2O)[C@](C)(O)C[C@@H](C)C(=O)[C@H](C)[C@@H](O)[C@]1(C)O [Erythromycin, erythromycin, reference compound]	2 (≈ 2.73 µM)	> 32	> 32	> 32	≤ 0.0625	8 (≈ 10.9 µM)	0.5 (≈ 0.681 µM)	> 32	> 32	> 32	2 (≈ 2.73 µM)	8 (≈ 10.9 µM)	2 (≈ 2.73 µM)	> 32	32 (≈ 43.6 µM)	2 (≈ 2.73 µM)	> 32	0.5 (≈ 0.681 µM)	> 32	2 (≈ 2.73 µM)	MIC [11]: 0.125 µg/mL (≈ 0.17 µM); MIC ([12]; BS1725 B. subtilis ermC (−ery)): > 32 µg/mL; MIC S. aureus (ATCC 29213) ([5]; S. aureus ATCC 29213): 0.25 µg/mL (≈ 0.341 µM); MIC ([5]; S. aureus 183, read-out: MIC S. aureus (183)): > 32 µg/mL; MIC A. baumannii (BAA747-1) ([9]; A. baumannii BAA747-1): >32 µg/mL
CC[C@H]1OC(=O)[C@H](C)C(=O)[C@H](C)[C@@H](O[C@@H]2OC(C)CC(N(C)C)C2O)[C@](C)(OC)C[C@@H](C)CN[C@H](C)[C@H]2N(CCCCn3cc(-c4cccnn4)nn3)C(=O)O[C@]12C (stereo partly shown) [FSM-20710]	0.5 (≈ 0.613 µM)	16 (≈ 19.6 µM)	> 32	> 32	0.5 (≈ 0.613 µM)	4 (≈ 4.91 µM)	2 (≈ 2.45 µM)	> 32	2 (≈ 2.45 µM)	4 (≈ 4.91 µM)	0.5 (≈ 0.613 µM)	2 (≈ 2.45 µM)	0.5 (≈ 0.613 µM)	8 (≈ 9.82 µM)	16 (≈ 19.6 µM)	1 (≈ 1.23 µM)	32 (≈ 39.3 µM)	2 (≈ 2.45 µM)	8 (≈ 9.82 µM)	0.0625 (≈ 0.0767 µM)	MIC [11, 28]: 2 µg/mL (≈ 2.45 µM)
CC[C@H]1OC(=O)[C@H](C)C(=O)[C@H](C)[C@@H](O[C@@H]2OC(C)CC(N(C)C)C2O)[C@](C)(OC)C[C@@H](C)CN[C@H](C)[C@H]2N(CCCCn3cc(-c4nccs4)nn3)C(=O)O[C@]12C (stereo partly shown) [FSM-20708]	0.125 (≈ 0.152 µM)	4 (≈ 4.88 µM)	> 32	> 32	0.5 (≈ 0.61 µM)	2 (≈ 2.44 µM)	2 (≈ 2.44 µM)	> 32	2 (≈ 2.44 µM)	2 (≈ 2.44 µM)	0.25 (≈ 0.305 µM)	2 (≈ 2.44 µM)	0.5 (≈ 0.61 µM)	4 (≈ 4.88 µM)	16 (≈ 19.5 µM)	1 (≈ 1.22 µM)	16 (≈ 19.5 µM)	2 (≈ 2.44 µM)	8 (≈ 9.76 µM)	0.0625 (≈ 0.0762 µM)	MIC [11, 28]: 1 µg/mL (≈ 1.22 µM)
